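Values below derive from 48-hour exposures of cells grown in 96-well plates, with endpoints linearly interpolated between the two concentrations bracketing the appropriate inhibition level. Here, GI50 denotes the concentration required for 50% inhibition of growth. The concentration for full growth arrest is given as TGI.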
Key:
Experiment in all cases: growth of human tumour cells (NCI), 48 h
[1] = test system: 786-0 renal
[2] = test system: A498 renal
[3] = test system: A549 NSCLC
[4] = test system: ACHN renal
[5] = test system: BT-549 breast
[6] = test system: CAKI-1 renal
[7] = test system: CCRF-CEM leukemia
[8] = test system: COLO 205 colon
[9] = test system: DU-145 prostate
[10] = test system: EKVX NSCLC
[11] = test system: HCC-2998 colon
[12] = test system: HCT-116 colon
[13] = test system: HCT-15 colon
[14] = test system: HL-60(TB) leukemia
[15] = test system: HOP-62 NSCLC
[16] = test system: HOP-92 NSCLC
[17] = test system: HS 578T breast
[18] = test system: HT29 colon
[19] = test system: IGROV1 ovarian
[20] = test system: K-562 leukemia
[21] = test system: KM12 colon
[22] = test system: LOX IMVI melanoma
[23] = test system: M14 melanoma
[24] = test system: MALME-3M melanoma
[25] = test system: MCF7 breast
[26] = test system: MDA-MB-231 breast
[27] = test system: MDA-MB-435
[28] = test system: MOLT-4 leukemia
[29] = test system: NCI-H226 lung
[30] = test system: NCI-H23 lung
[31] = test system: NCI-H460 lung
[32] = test system: NCI-H522 lung
[33] = test system: NCI/ADR-RES ovarian
[34] = test system: OVCAR-3 ovarian
[35] = test system: OVCAR-4 ovarian
[36] = test system: OVCAR-5 ovarian
[37] = test system: OVCAR-8 ovarian
[38] = test system: PC-3 prostate
[39] = test system: RPMI-8226 leukemia
[40] = test system: RXF 393 renal
[41] = test system: SF-268 CNS
[42] = test system: SF-295 CNS
[43] = test system: SF-539 CNS
[44] = test system: SK-MEL-2 melanoma
[45] = test system: SK-MEL-28 melanoma
[46] = test system: SK-MEL-5 melanoma
[47] = test system: SK-OV-3 ovarian
[48] = test system: SN12C renal
[49] = test system: SNB-19 CNS
[50] = test system: SNB-75 CNS
[51] = test system: SR leukemia
[52] = test system: SW-620 colon
[53] = test system: T-47D breast
[54] = test system: TK-10 renal
[55] = test system: U251 CNS
[56] = test system: UACC-257 melanoma
[57] = test system: UACC-62 melanoma
[58] = test system: UO-31 renal

For `O=C(Nc1n[nH]c2nc(-c3ccco3)c(Br)cc12)C1CC1`, the GI50 [1] was > 25 µM, the TGI [1] was > 25 µM and the GI50 [2] was > 12.5 µM. For the same compound, the TGI [2] was > 25 µM, the GI50 [3] was > 25 µM and the TGI [3] was > 25 µM. For the same compound, the GI50 [4] was > 25 µM, the TGI [4] was > 25 µM and the GI50 [5] was > 25 µM. For the same compound, the TGI [5] was > 25 µM, the GI50 [6] was > 25 µM and the TGI [6] was > 25 µM. The GI50 [7] was > 21.7 µM, the TGI [7] was > 25 µM and the GI50 [8] was > 25 µM. The TGI [8] was > 25 µM, the GI50 [9] was > 25 µM and the TGI [9] was > 25 µM. The GI50 [10] was > 25 µM, the TGI [10] was > 25 µM and the GI50 [11] was > 25 µM. For the same compound, the TGI [11] was > 25 µM, the GI50 [12] was > 25 µM and the TGI [12] was > 25 µM. The GI50 [13] was > 25 µM, the TGI [13] was > 25 µM and the GI50 [14] was > 25 µM. The TGI [14] was > 25 µM, the GI50 [15] was > 25 µM and the TGI [15] was > 25 µM. For the same compound, the GI50 [16] was > 25 µM, the TGI [16] was > 25 µM and the GI50 [17] was > 25 µM. For the same compound, the TGI [17] was > 25 µM, the GI50 [18] was > 25 µM and the TGI [18] was > 25 µM. The GI50 [19] was > 25 µM, the TGI [19] was > 25 µM and the GI50 [20] was > 25 µM. For the same compound, the TGI [20] was > 25 µM, the GI50 [21] was > 25 µM and the TGI [21] was > 25 µM. The GI50 [22] was > 21.7 µM, the TGI [22] was > 25 µM and the GI50 [23] was > 25 µM. For the same compound, the TGI [23] was > 25 µM, the GI50 [24] was > 25 µM and the TGI [24] was > 25 µM. For the same compound, the GI50 [25] was > 7.12 µM, the TGI [25] was > 25 µM and the GI50 [26] was > 25 µM. The TGI [26] was > 25 µM, the GI50 [27] was > 25 µM and the TGI [27] was > 25 µM. The GI50 [28] was > 25 µM, the TGI [28] was > 25 µM and the GI50 [29] was > 25 µM. The TGI [29] was > 25 µM, the GI50 [30] was > 25 µM and the TGI [30] was > 25 µM. For the same compound, the GI50 [31] was > 25 µM, the TGI [31] was > 25 µM and the GI50 [32] was > 25 µM. For the same compound, the TGI [32] was > 25 µM, the GI50 [33] was > 25 µM and the TGI [33] was > 25 µM. The GI50 [34] was > 25 µM, the TGI [34] was > 25 µM and the GI50 [35] was > 25 µM. For the same compound, the TGI [35] was > 25 µM, the GI50 [36] was > 25 µM and the TGI [36] was > 25 µM. The GI50 [37] was > 25 µM, the TGI [37] was > 25 µM and the GI50 [38] was > 25 µM. The TGI [38] was > 25 µM, the GI50 [39] was > 25 µM and the TGI [39] was > 25 µM. The GI50 [40] was 4.89 µM, the TGI [40] was > 25 µM and the GI50 [41] was > 25 µM. For the same compound, the TGI [41] was > 25 µM, the GI50 [42] was > 25 µM and the TGI [42] was > 25 µM. For the same compound, the GI50 [43] was > 25 µM, the TGI [43] was > 25 µM and the GI50 [44] was > 25 µM. The TGI [44] was > 25 µM, the GI50 [45] was > 25 µM and the TGI [45] was > 25 µM. For the same compound, the GI50 [46] was > 16.4 µM, the TGI [46] was > 25 µM and the GI50 [47] was 15.9 µM. The TGI [47] was > 25 µM, the GI50 [48] was > 25 µM and the TGI [48] was > 25 µM. The GI50 [49] was > 25 µM, the TGI [49] was > 25 µM and the GI50 [50] was > 9.08 µM. The TGI [50] was > 25 µM, the GI50 [51] was > 25 µM and the TGI [51] was > 25 µM. For the same compound, the GI50 [52] was > 25 µM, the TGI [52] was > 25 µM and the GI50 [53] was > 25 µM. The TGI [53] was > 25 µM, the GI50 [54] was > 25 µM and the TGI [54] was > 25 µM. The GI50 [55] was > 25 µM, the TGI [55] was > 25 µM and the GI50 [56] was > 25 µM. For the same compound, the TGI [56] was > 25 µM, the GI50 [57] was > 25 µM and the TGI [57] was > 25 µM. The GI50 [58] was > 25 µM and the TGI [58] was > 25 µM.

From PubChem BioAssay (NCI)
